Assay results published in patent publication US8324179B2, “Nucleoside analogs for antiviral treatment” (Gilead Sciences, Inc., priority 2007, dated 2012).

The compounds below were run against T1, HCV Δ21 NS5b polymerase (Hepatitis C virus genotype 1b, UniProt P26663) (assay: NS5b polymerase assay (HCV IC50 determination)). Details: not given.
T1 construct: 75 nM HCV Δ21 NS5b polymerase
Format: biochemical
Experimental: Assay Protocol: NS5b polymerase assay (40 μL) was assembled by adding 28 μL polymerase mixture (final concentration: 50 mM Tris-HCl at pH 7.5, 10 mM KCL, 5 mM MgCl2, 1 mM DTT, 10 mM EDTA, 4 ng/μL of RNA template, and 75 nM HCV Δ21 NS5b polymerase) to assay plates followed by 4 μL of compound dilution. The polymerase and compound were pre-incubated at 35° C. for 10 minute before the addition of 8 μL of nucleotide substrate mixture (33P-α-labeled competing nucleotide at KM and 0.5 mM of the remaining three nucleotides). The assay plates were covered and incubated at 35° C. for 90 min. Reactions were then filtered through 96-well DEAE-81 filter plates via vacuum. The filter plates were then washed under vacuum with multiple volumes of 0.125 M NaHPO4, water, and ethanol to remove unincorporated label. Plates were then counted on TopCount to assess the level of product synthesis over background controls. The IC50 value was determined using Prism fitting program.

T1 sequence (P26663 2420-2989, stated change not applied): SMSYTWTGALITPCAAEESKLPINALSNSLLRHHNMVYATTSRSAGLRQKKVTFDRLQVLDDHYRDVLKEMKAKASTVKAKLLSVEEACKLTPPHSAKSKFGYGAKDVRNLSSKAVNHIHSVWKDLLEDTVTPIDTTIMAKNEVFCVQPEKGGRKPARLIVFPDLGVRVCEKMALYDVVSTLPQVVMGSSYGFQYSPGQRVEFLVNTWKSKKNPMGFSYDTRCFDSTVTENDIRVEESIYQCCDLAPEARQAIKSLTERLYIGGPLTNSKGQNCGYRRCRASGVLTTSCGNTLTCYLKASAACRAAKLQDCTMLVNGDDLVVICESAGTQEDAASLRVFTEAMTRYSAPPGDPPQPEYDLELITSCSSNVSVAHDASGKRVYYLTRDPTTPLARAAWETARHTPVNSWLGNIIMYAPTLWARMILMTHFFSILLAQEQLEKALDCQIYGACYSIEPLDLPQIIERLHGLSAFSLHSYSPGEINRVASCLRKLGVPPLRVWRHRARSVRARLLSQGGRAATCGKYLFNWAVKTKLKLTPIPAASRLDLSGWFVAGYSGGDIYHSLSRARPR

First: Nc1ncnc2c1nnn2[C@@H]1O[C@H](/C=C/P(=O)(O)OP(=O)(O)OP(=O)(O)O)[C@@H](O)[C@H]1O [Compound 6.8]
Second: Nc1ncnc2c1nnn2C1OC(C=CP(=O)(O)OP(=O)(O)OP(=O)(O)O)CC1O (stereo not shown) [Compound 38.4]
The IC50 of the first is higher: > 100 µM for the first, 10 to 100 µM for the second.

`Nc1nc2c(ncn2[C@@H]2O[C@H](/C=C/P(=O)(O)OP(=O)(O)OP(=O)(O)O)C[C@H]2O)c(=O)[nH]1` [Compound 9.12] and `Nc1nc2c(nnn2[C@@H]2O[C@H](/C=C/P(=O)(O)OP(=O)(O)OP(=O)(O)O)C[C@H]2O)c(=O)[nH]1` [Compound 10.4] cannot be ordered by IC50: > 100 µM for the first, > 100 µM for the second.

Compared with `COC1C(O)C(C=CP(=O)(O)OP(=O)(O)OP(=O)(O)O)OC1n1cnc2c(=O)[nH]c(N)nc21` (stereo not shown) [Compound 16.95], `Nc1ncnc2c1ncn2[C@@H]1O[C@H](/C=C/P(=O)(O)OP(=O)(O)OP(=O)(O)O)[C@@H](O)[C@H]1F` [Compound 55.7] is lower in IC50: 10 to 100 µM for the first, < 10 µM for the second.

Compared with `O=C1C=Cc2nn([C@@H]3O[C@H](/C=C/P(=O)(O)OP(=O)(O)OP(=O)(O)O)C[C@H]3O)c3ncnc(c23)N1` [Compound 52.6], `CN(NS(C)(=O)=O)c1ncnc2c1ncn2[C@@H]1O[C@H](/C=C/P(=O)(O)OP(=O)(O)OP(=O)(O)O)C[C@H]1O` [Compound 60.5] is higher in IC50: < 10 µM for the first, > 100 µM for the second.

`Nc1nc(N)c2nnn(C3OC(C=CP(=O)(O)OP(=O)(O)OP(=O)(O)O)CC3O)c2n1` (stereo not shown) [Compound 53.4] and `NC(=O)c1ncn([C@@H]2O[C@H](/C=C/P(=O)(O)OP(=O)(O)OP(=O)(O)O)C[C@H]2O)n1` [Compound 54.4] cannot be ordered by IC50: > 100 µM for the first, > 100 µM for the second.

First: Nc1ncnc2c1ncn2[C@@H]1O[C@H](/C=C/P(=O)(O)OP(=O)(O)OP(=O)(O)O)[C@@H](O)[C@@H]1F [Compound 56.5]
Second: O=c1ccn([C@@H]2O[C@H](/C=C/P(=O)(O)OP(=O)(O)OP(=O)(O)O)[C@@H](O)[C@H]2F)c(=O)[nH]1 [Compound 58.7]
The IC50 of the first is higher: > 100 µM for the first, 10 to 100 µM for the second.

The compounds below were run on Replicon cells (assay: HCV EC50 determination, replicon luciferase assay). Details: 3 days, luciferase activity, read-out: Replicon inhibiting potency EC50.
Format: cell-based
Experimental: Replicon cells were seeded in 96-well plates at a density of 8×10^3 cells per well in 100 μL of culture medium, excluding Geneticin. Compound was serially diluted in 100% DMSO and then added to the cells at a 1:200 dilution, achieving a final concentration of 0.5% DMSO and a total volume of 200 μL. Plates were incubated at 37° C. for 3 days, after which culture medium was removed and cells were lysed in lysis buffer provided by Promega's luciferase assay system. Following the manufacturer's instruction, 100 μL of luciferase substrate was added to the lysed cells and luciferase activity was measured in a TopCount luminometer.

Compared with `CCCCOC(=O)[C@H](C)NP(=O)(/C=C/[C@@H]1C[C@@H](O)[C@H](n2cnc3c(=O)[nH]c(N)nc32)O1)N[C@@H](C)C(=O)OCCCC` [Compound 9.11], `Nc1ncnc2c1cnn2[C@@H]1O[C@H](/C=C/P(=O)(O)O)[C@@H](O)[C@H]1O` [Compound 25.3, (E)-2-((2R,3S,4R,5R)-5-(4-amino-1H-pyrazolo[3,4-d]pyrimidin-1-yl)-3.4-dihydroxy-tetrahydrofuran-2-yl)vinylphosphonic acid] is higher in EC50: < 10 µM for the first, > 100 µM for the second.

Compared with `CCCCOC(=O)[C@H](C)NP(=O)(/C=C/[C@H]1O[C@@H](n2cnc3c(N)ncnc32)[C@@H](F)[C@@H]1O)N[C@@H](C)C(=O)OCCCC` [Compound 56.6], “{2-[5-(4-Amino-2-oxo-2H-pyridin-1-yl)-4-hydroxy-tetrahydro-furan-2-yl]-vinyl}-phosphonic acid [Compound 11.2]” is higher in EC50: < 10 µM for the first, > 100 µM for the second.

Same assay, conditions: Hepatitis C virus, 72 h, 3 days, luciferase activity, read-out: Replicon inhibiting potency EC50

`Nc1ncnc2c1nnn2C1OC(CCP(=O)(O)O)C(O)C1O` (stereo not shown) [Compound 6.7, {2-[5-(7-Amino-[1,2,3]triazolo[4,5-d]pyrimidin-3-yl)-3,4-dihydroxy-tetrahydro-furan-2-yl]-ethyl}-phosphonic acid] and `Nc1ncnc2c1nnn2[C@@H]1O[C@H](/C=C/P(=O)(O)O)C[C@H]1O` [Compound 38.2, (E)-2-((2S,4R,5R)-5-(7-amino-3H-[1,2,3]triazolo[4,5-d]pyrimidin-3-yl)-4-hydroxy-tetrahydrofuran-2-yl)vinylphosphonic acid] cannot be ordered by EC50: > 100 µM for the first, > 100 µM for the second.

First: CC(=O)Nc1nc2c(ncn2C2OC(C=CP(=O)(O)O)CC2OC(=O)c2ccccc2)c(=O)[nH]1 (stereo not shown) [Compound 9.10, Benzoic acid 2-(2-acetylamino-6-oxo-1,6-dihydro-purin-9-yl)-5-(2-phosphono-vinyl)-tetrahydro-furan-3-yl ester]
Second: COC1C(O)C(C=CP(=O)(O)O)OC1n1cnc2c(=O)[nH]c(N)nc21 (stereo not shown) [Compound 16.9, {2-[5-(2-Amino-6-oxo-1,6-dihydro-purin-9-yl)-3-hydroxy-4-methoxy-tetrahydro-furan-2-yl]-vinyl}-phosphonic acid]
The EC50 of the first is lower: 10 to 100 µM for the first, > 100 µM for the second.

`Nc1nc2c(nnn2C2OC(C=CP(=O)(O)O)CC2O)c(=O)[nH]1` (stereo not shown) [Compound 10.2, {2-[5-(5-Amino-7-oxo-6,7-dihydro-[1,2,3]triazolo[4,5-d]pyrimidin-3-yl)-4-hydroxy-tetrahydro-furan-2-yl]-vinyl}-phosphonic acid] and `Nc1nc2c(ncn2C2OC(C=CP(=O)(O)O)C(O)C2O)c(=O)[nH]1` (stereo not shown) [Compound 18.8, {2-[5-(2-Amino-6-oxo-1,6-dihydro-purin-9-yl)-3,4-dihydroxy-tetrahydro-furan-2-yl]-vinyl}-phosphonic acid] fall in the same range of EC50: 10 to 100 µM for the first, 10 to 100 µM for the second.

`CCCCOC(=O)[C@H](C)NP(=O)(/C=C/[C@@H]1C[C@@H](O)[C@H](n2nnc3c(=O)[nH]c(N)nc32)O1)N[C@@H](C)C(=O)OCCCC` [Compound 10.3] and `CCCCOC(=O)[C@H](C)NP(=O)(/C=C/[C@@H]1C[C@@H](O)[C@H](n2cnc(C(N)=O)n2)O1)N[C@@H](C)C(=O)OCCCC` [Compound 54.3] cannot be ordered by EC50: > 100 µM for the first, > 100 µM for the second.

Going from `Nc1ncnc2c1ncn2C1OC(C=CP(=O)(O)O)CC1O` (stereo not shown) [Compound 12.2, {2-[5-(6-Amino-purin-9-yl)-4-hydroxy-tetrahydro-furan-2-yl]-vinyl}-phosphonic acid] to `CNc1ncnc2c1ncn2C1OC(C=CP(=O)(O)O)CC1O` (stereo not shown) [Compound 47.2, {2-[4-Hydroxy-5-(6-methylamino-purin-9-yl)-tetrahydro-furan-2-yl]-vinyl}-phosphonic acid], the EC50 rises from < 10 µM to > 100 µM.

`Nc1nc(N)c2ncn(C3OC(C=CP(=O)(O)O)CC3O)c2n1` (stereo not shown) [Compound 13.2, {2-[5-(2,6-Diamino-purin-9-yl)-4-hydroxy-tetrahydro-furan-2-yl]-vinyl}-phosphonic acid] and `CNc1nc(N)nc2c1ncn2C1OC(C=CP(=O)(O)O)CC1O` (stereo not shown) [Compound 46.3, {2-[5-(2-Amino-6-methylamino-purin-9-yl)-4-hydroxy-tetrahydro-furan-2-yl]-vinyl}-phosphonic acid] cannot be ordered by EC50: > 100 µM for the first, > 100 µM for the second.

`COC1C(O)C(C=CP(=O)(O)O)OC1n1ccc(N)nc1=O` (stereo not shown) [Compound 17.5, {2-[5-(4-Amino-2-oxo-2H-pyrimidin-1-yl)-3-hydroxy-4-methoxy-tetrahydro-furan-2-yl]-vinyl}-phosphonic acid] and `Nc1ncnc2c1ncn2[C@@H]1O[C@H](/C=C/P(=O)(O)O)[C@@H](O)[C@H]1O` [Compound 24.4, (E)-2-((2R,3S,4R,5R)-5-(6-amino-9H-purin-9-yl)-3,4-dihydroxy-tetrahydrofuran-2-yl)vinylphosphonic acid] cannot be ordered by EC50: > 100 µM for the first, > 100 µM for the second.

First: C[C@@]1(O)[C@H](O)[C@@H](/C=C/P(=O)(O)O)O[C@H]1n1nnc2c(N)ncnc21 [Compound 27.8, (E)-2-((2R,3R,4R,5R)-5-(7-amino-3H-[1,2,3]triazolo[4,5-d]pyrimidin-3-yl)-3,4-dihydroxy-4-methyl-tetrahydrofuran-2-yl)vinylphosphonic acid]
Second: CCCCOC(=O)[C@H](C)NP(=O)(/C=C/[C@H]1O[C@@H](n2cnc3c(N)ncnc32)[C@H](F)[C@@H]1O)N[C@@H](C)C(=O)OCCCC [Compound 55.8]
The EC50 of the first is higher: > 100 µM for the first, 10 to 100 µM for the second. The second is the more potent here.

First: CCCCOC(=O)[C@H](C)NP(=O)(/C=C/[C@@]1(N=[N+]=[N-])O[C@@H](n2ccc(=O)[nH]c2=O)[C@H](O)[C@@H]1O)N[C@@H](C)C(=O)OCCCC [Compound 48.7]
Second: O=c1ccn([C@@H]2O[C@H](/C=C/P(=O)(O)O)C[C@H]2O)c(=O)[nH]1 [Compound 50.6]
The EC50 of the first is lower: 10 to 100 µM for the first, > 100 µM for the second. The first is the more potent here.
